Results: ChEMBL document CHEMBL5649166, “RIP3 induces apoptosis independent of pronecrotic kinase activity” (Mol Cell, 2014)
Calls of active or inactive are those of the source. The calls are words filed in the database; no cut-off is given here.

Tests used:
[1] = target: Ephrin type-A receptor 6 (Homo sapiens) (UniProt Q9UF33); assay: Inhibition of human EPHA6 using poly[Glu:Tyr] (4:1) as substrate at 1 uM in presence of 32P-ATP by Hotspot assay relative to control; values are per cent of control
[2] = target: Serine/threonine-protein kinase 38 (Homo sapiens) (UniProt Q15208); assay: Inhibition of human STK38/NDR1 using KKRNRRLSVA as substrate at 1 uM in presence of 32P-ATP by Hotspot assay relative to control; values are per cent of control
[3] = target: MAP kinase-interacting serine/threonine-protein kinase 1 (Homo sapiens) (UniProt Q9BUB5); assay: Inhibition of human MNK1 using myelin basic protein as substrate at 1 uM in presence of 32P-ATP by Hotspot assay relative to control; values are per cent of control
[4] = target: Serine/threonine-protein kinase mTOR (Homo sapiens) (UniProt P42345); assay: Inhibition of human mTOR/FRAP1 using at 1 uM in presence of 32P-ATP by Hotspot assay relative to control
[5] = test system: 3T3SA; assay: Induction of apoptosis in RIP3 shRNA transfected mouse 3T3SA cells co-transfected with shRNA resistant RIP3 D161G mutant assessed as accumulation of FLAG-tagged RIP3 D161G mutant in pellet incubated for 3 hrs in presence of zVAD by immunoblot analysis; assay type: toxicity, cell-based
[6] = test system: 3T3SA; assay: Induction of apoptosis in RIP3shRNA transfected mouse 3T3SA cells co-transfected with shRNA-resistant RIP3 mutRHIM pre-tranfected for 16 hrs followed by compound addition and measured after 18 hrs in presence of zVAD by Cell Titer-Glo luminescent cell viability assay; assay type: toxicity, cell-based
[7] = test system: 3T3SA; assay: Induction of apoptosis in RIP3 shRNA transfected mouse 3T3SA cells co-transfected with shRNA resistant RIP3 D143N mutant assessed as accumulation of FLAG-tagged RIP3 D143N mutant in pellet incubated for 3 hrs in presence of zVAD by immunoblot analysis; assay type: toxicity, cell-based
[8] = test system: SVEC4-10; assay: Inhibition of DAI-induced necroptosis in MCMV M45mutRHIM infected mouse SVEC4-10 cells assessed as increase in cell viability at 10 uM incubated for 18 hrs in presence of zVAD by Cell Titer-Glo luminescent cell viability assay; assay type: functional, cell-based
[9] = test system: MEF; assay: Induction of apoptosis in RIP3-/- MEF cells incubated for 18 hrs by Cell Titer-Glo luminescent cell viability assay; assay type: toxicity, cell-based; conditions: mouse
[10] = test system: SVEC4-10; assay: Induction of apoptosis in mouse SVEC4-10 cells transfected with RIP3 shRNA at 10 uM incubated for 18 hrs by Cell Titer-Glo luminescent cell viability assay; assay type: toxicity, cell-based; conditions: svec4-10, 18 h
[11] = target: Nuclear factor NF-kappa-B complex (Homo sapiens) (UniProt Q00653+P19838+Q04206); assay: Activation of NFkappaB (unknown origin) transfected in mouse 3T3SA cells incubated for 2.5 hrs; assay type: cell-based; conditions: filed as activator
[12] = test system: 3T3SA; assay: Induction of apoptosis in mouse 3T3SA cells assessed as increase in caspase 8 proteolytic activity incubated for 2.5 hrs; assay type: toxicity, cell-based
[13] = test system: 3T3SA; assay: Induction of apoptosis in RIP3shRNA transfected mouse 3T3SA cells co-transfected with shRNA-resistant RIP3 D161G mutant pre-tranfected for 16 hrs followed by compound addition and measured after 18 hrs in presence of zVAD by Cell Titer-Glo luminescent cell viability assay; assay type: toxicity, cell-based
[14] = test system: 3T3SA; assay: Induction of apoptosis in mouse 3T3SA cells assessed as cell death by measuring percent of PI positive cells incubated for 3 hrs by PI staining based flow cytometric analysis (reference value: 10.7%); assay type: toxicity
[15] = test system: 3T3SA; assay: Induction of apoptosis in mouse 3T3SA cells assessed as accumulation of cleaved caspase-3 by measuring percentage of cleaved caspase-3 positive cells measured after 2.5 hrs by immunoblot analysis (reference value: 4%); assay type: toxicity, cell-based
[16] = test system: 3T3SA; assay: Induction of apoptosis in mouse 3T3SA cells assessed as membrane blebbing incubated for 2.5 hrs; assay type: toxicity, cell-based
[17] = test system: L929; assay: Inhibition of TLR-3 induced necroptosis in mouse L929 cells assessed as increase in cell viability at higher concentration incubated for 18 hrs in presence of poly(I:C) by Cell Titer-Glo luminescent cell viability assay; assay type: functional, cell-based
[18] = test system: 3T3SA; assay: Induction of apoptosis in RIP3shRNA transfected mouse 3T3SA cells co-transfected with shRNA-resistant RIP3 T257A mutant pre-tranfected for 16 hrs followed by compound addition and measured after 18 hrs in presence of zVAD by Cell Titer-Glo luminescent cell viability assay; assay type: toxicity, cell-based
[19] = test system: 3T3SA; assay: Induction of apoptosis in mouse 3T3SA cells transfected with RIP3 shRNA at 10 uM incubated for 18 hrs by Cell Titer-Glo luminescent cell viability assay; assay type: toxicity, cell-based
[20] = test system: 3T3SA; assay: Induction of apoptosis in mouse 3T3SA cells assessed as cell morphological changes incubated for 2.5 hrs by transmission electron microscopic analysis; assay type: toxicity, cell-based
[21] = test system: MEF; assay: Induction of apoptosis in RIP3-/- MEF cells expressing dox-induced wildtype RIP3 assessed as RIP1-FADD association incubated for 1 hrs by immunoblot analysis; assay type: toxicity, cell-based; conditions: mouse
[22] = test system: SVEC4-10; assay: Inhibition of DAI-induced necroptosis in MCMV M45mutRHIM infected mouse SVEC4-10 cells assessed as increase in cell viability at 10 uM incubated for 18 hrs by Cell Titer-Glo luminescent cell viability assay; assay type: functional, cell-based
[23] = test system: NIH3T3; assay: Induction of apoptosis in mouse NIH/3T3 cells expressing low level of […] at 1 to 10 uM incubated for 18 hrs by Cell Titer-Glo luminescent cell viability assay; assay type: toxicity, cell-based; conditions: nih3t3, 18 h, dose 1-10 µM
[24] = test system: 3T3SA; assay: Induction of apoptosis in mouse 3T3SA cells transfected with RIP1 siRNA assessed as accumulation of cleaved caspase 3 incubated for 0.5 to 1.5 hrs by immunoblot analysis; assay type: toxicity, cell-based; conditions: time 0.5-1.5 hrs
[25] = test system: L929; assay: Inhibition of TLR-3 induced necroptosis in mouse L929 cells assessed as increase in cell viability at 1 uM incubated for 18 hrs in presence of poly(I:C) by Cell Titer-Glo luminescent cell viability assay; assay type: functional, cell-based
[26] = test system: 3T3SA; assay: Induction of apoptosis in vICA expression plasmid transfected mouse 3T3SA cells co-transfected with shRNA-resistant empty vector incubated for 12 hrs by Cell Titer-Glo luminescent cell viability assay; assay type: toxicity, cell-based
[27] = test system: BMDM; assay: Induction of apoptosis in mouse BMDM cells expressing RIP3 K51A/K51A mutant incubated for 18 hrs by Cell Titer-Glo luminescent cell viability assay; assay type: toxicity, cell-based
[28] = test system: MEF; assay: Induction of apoptosis in RIP3-/- MEF cells expressing dox-induced wildtype RIP3 assessed as RIP1-RPI3 association incubated for 1 hrs by immunoblot analysis; assay type: toxicity, cell-based; conditions: mouse
[29] = test system: MEF; assay: Induction of apoptosis in RIP3-/- MEF cells transfected with RIP3 K51A mutant incubated for 18 hrs by Cell Titer-Glo luminescent cell viability assay; assay type: toxicity, cell-based; conditions: mouse
[30] = test system: 3T3SA; assay: Induction of apoptosis in mouse 3T3SA cells incubated for 18 hrs in presence of zVAD by Cell Titer-Glo luminescent cell viability assay; assay type: toxicity, cell-based
[31] = test system: 3T3SA; assay: Induction of apoptosis in mouse 3T3SA cells incubated for 18 hrs in presence of 3-MA by Cell Titer-Glo luminescent cell viability assay; assay type: toxicity, cell-based

Chain of Nuclear factor NF-kappa-B complex (Homo sapiens) (P19838 whole entry, looked up): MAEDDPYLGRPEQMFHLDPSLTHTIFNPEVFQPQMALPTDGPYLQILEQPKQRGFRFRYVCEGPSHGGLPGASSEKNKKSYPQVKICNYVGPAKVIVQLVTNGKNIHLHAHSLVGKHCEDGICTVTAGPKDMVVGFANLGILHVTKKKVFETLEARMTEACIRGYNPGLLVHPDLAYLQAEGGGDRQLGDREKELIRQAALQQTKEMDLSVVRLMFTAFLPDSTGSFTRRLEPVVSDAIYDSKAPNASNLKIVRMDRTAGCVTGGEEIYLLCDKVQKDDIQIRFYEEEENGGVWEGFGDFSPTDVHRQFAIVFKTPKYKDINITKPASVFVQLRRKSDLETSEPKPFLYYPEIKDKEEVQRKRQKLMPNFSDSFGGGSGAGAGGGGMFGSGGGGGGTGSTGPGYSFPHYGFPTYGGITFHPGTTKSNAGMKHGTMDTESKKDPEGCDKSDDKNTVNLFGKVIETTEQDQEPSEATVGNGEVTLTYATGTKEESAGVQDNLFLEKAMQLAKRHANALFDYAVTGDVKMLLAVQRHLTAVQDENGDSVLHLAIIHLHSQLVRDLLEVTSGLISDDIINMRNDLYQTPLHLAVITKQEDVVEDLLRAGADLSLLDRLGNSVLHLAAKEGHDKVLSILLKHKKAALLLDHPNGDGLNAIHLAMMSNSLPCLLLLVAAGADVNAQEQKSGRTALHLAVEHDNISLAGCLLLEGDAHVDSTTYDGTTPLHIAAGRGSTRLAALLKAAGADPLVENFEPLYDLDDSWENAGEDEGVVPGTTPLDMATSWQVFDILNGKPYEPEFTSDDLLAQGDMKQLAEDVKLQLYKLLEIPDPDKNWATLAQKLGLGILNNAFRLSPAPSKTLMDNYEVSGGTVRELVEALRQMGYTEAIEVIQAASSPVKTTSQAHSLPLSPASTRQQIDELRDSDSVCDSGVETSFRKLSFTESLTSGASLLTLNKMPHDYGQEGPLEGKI
Chain of Nuclear factor NF-kappa-B complex (Homo sapiens) (Q00653 whole entry, looked up): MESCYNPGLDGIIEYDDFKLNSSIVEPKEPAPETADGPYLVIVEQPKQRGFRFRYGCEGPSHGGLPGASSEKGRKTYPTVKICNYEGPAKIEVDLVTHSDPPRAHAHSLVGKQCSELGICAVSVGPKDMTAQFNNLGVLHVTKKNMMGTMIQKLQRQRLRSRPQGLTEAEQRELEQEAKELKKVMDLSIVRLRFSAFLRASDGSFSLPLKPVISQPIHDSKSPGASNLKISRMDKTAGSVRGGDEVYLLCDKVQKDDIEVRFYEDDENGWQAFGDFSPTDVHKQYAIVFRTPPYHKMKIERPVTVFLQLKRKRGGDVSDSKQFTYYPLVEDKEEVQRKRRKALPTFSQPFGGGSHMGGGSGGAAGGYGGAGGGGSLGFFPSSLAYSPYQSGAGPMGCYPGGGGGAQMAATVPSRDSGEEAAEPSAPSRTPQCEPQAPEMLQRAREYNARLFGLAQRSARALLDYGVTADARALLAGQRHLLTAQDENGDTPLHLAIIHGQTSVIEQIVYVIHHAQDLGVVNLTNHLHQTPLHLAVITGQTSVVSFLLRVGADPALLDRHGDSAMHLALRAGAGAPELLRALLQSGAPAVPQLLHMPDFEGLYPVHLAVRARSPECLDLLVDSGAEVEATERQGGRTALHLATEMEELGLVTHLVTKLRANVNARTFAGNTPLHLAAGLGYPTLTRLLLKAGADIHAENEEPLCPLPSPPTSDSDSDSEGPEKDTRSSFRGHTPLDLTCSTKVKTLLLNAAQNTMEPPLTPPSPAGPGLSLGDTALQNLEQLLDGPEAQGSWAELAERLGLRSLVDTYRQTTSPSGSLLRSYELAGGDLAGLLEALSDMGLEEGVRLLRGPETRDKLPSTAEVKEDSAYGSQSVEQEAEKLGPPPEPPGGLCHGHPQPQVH
Chain of Nuclear factor NF-kappa-B complex (Homo sapiens) (Q04206 whole entry, looked up): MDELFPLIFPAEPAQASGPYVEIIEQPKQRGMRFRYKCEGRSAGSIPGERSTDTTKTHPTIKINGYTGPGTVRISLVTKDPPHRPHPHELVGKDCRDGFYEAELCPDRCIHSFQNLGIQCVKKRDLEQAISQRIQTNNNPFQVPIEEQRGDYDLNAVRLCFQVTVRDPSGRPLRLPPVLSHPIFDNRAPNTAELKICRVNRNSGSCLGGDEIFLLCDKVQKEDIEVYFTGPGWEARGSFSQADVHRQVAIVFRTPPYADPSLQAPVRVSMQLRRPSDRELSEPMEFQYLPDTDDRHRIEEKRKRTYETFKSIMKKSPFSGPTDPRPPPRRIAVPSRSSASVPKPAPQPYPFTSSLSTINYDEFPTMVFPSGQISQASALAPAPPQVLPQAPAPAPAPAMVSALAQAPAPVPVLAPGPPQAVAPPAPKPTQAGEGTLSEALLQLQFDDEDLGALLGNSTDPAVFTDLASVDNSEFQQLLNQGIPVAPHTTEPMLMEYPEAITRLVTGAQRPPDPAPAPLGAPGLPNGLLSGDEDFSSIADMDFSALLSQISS
Chain of Ephrin type-A receptor 6 (Homo sapiens) (Q9UF33 whole entry): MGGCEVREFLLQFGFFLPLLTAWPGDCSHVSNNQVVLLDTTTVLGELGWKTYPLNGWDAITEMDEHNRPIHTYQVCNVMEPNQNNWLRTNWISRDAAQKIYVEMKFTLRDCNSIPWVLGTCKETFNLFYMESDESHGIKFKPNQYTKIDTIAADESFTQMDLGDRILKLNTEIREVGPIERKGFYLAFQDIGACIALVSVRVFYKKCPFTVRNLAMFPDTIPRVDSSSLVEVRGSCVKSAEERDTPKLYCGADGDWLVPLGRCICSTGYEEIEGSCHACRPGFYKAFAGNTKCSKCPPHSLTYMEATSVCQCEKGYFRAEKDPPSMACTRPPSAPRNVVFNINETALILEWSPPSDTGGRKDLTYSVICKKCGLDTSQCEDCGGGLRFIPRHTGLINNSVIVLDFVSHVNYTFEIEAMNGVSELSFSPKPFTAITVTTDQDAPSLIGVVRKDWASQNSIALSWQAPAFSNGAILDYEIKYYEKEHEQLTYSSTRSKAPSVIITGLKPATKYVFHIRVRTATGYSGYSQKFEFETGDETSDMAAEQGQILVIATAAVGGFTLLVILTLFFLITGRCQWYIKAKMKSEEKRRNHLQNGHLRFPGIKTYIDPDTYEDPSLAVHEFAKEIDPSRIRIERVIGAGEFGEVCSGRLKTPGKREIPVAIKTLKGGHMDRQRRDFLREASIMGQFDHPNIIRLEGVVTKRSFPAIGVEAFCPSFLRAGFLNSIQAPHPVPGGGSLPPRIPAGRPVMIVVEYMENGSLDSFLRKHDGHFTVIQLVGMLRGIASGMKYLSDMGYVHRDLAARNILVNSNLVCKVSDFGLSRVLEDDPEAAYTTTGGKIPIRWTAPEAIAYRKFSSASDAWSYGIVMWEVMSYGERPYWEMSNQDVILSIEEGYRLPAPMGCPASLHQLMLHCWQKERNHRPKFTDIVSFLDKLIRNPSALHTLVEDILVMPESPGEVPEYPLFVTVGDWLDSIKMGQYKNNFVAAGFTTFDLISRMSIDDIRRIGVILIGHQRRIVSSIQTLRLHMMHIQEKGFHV
Chain of MAP kinase-interacting serine/threonine-protein kinase 1 (Homo sapiens) (Q9BUB5 whole entry, looked up): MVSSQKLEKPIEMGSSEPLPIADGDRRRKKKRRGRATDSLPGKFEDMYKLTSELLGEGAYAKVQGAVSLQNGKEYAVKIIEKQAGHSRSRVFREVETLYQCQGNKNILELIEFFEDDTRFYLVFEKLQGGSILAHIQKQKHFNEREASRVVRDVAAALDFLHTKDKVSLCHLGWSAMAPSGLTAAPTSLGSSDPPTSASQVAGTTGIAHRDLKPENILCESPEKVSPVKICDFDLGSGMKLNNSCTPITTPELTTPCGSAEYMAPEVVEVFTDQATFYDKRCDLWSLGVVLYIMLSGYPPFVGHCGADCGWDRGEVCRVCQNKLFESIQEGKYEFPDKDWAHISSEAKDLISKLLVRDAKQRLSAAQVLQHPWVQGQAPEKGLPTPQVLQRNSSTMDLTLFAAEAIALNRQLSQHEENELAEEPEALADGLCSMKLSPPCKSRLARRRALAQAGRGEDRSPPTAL
Chain of Serine/threonine-protein kinase 38 (Homo sapiens) (Q15208 2-465 limits assumed): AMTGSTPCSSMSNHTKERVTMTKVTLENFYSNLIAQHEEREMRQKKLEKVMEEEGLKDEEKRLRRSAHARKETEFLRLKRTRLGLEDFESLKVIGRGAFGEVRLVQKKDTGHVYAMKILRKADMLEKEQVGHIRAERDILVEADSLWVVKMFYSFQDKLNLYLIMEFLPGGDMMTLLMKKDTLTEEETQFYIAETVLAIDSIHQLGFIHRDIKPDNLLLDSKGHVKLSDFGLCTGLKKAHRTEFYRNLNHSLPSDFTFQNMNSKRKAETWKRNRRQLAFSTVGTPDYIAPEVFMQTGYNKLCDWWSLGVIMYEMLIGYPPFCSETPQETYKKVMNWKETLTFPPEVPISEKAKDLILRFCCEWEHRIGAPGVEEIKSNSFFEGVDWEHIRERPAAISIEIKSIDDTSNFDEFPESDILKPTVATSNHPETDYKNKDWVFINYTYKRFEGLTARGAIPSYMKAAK

## CNC(=O)c1ccc2c(c1)ncn2-c1ccc(CC(=O)OC(C)(C)C)cc1
[1]
  residual activity: 88.9%
[2]
  residual activity: 96.4%
[3]
  residual activity: 99.7%

## Cc1cc(-c2cnc(N)c3c(-c4ccc5scnc5c4)csc23)n(C)n1
[4]
  inhibition: 60.8%

## CC(C)S(=O)(=O)c1ccc2nccc(Nc3ccc4scnc4c3)c2c1
[5]
  Activity: Toxic
[6]
  Activity: Non-Toxic
[7]
  Activity: Toxic
[8]
  inhibition: Active
[9]
  Activity: Non-Toxic
[10]
  Activity: Non-Toxic
[11]
  Activity: Active
[12]
  Activity: Toxic
[13]
  Activity: Non-Toxic
[14]
  Activity: 24%
[15]
  Activity: 29%
[16]
  Activity: Toxic
[17]
  inhibition: inactive
[18]
  Activity: Non-Toxic
[19]
  Activity: Non-Toxic
[20]
  Activity: Toxic
[21]
  Activity: Toxic
[22]
  inhibition: inactive
[23]
  Activity: Non-Toxic
[24]
  Activity: Non-Toxic
[25]
  inhibition: Active
[26]
  Activity: Non-Toxic
[27]
  Activity: Toxic
[28]
  Activity: Toxic
[29]
  Activity: Toxic
[30]
  Activity: Non-Toxic
[31]
  Activity: Toxic
